According to the supplement of paper PMC10307832:

Legend:
Assay in all cases: relative viability (nuclei count vs DMSO), 5 days (fraction); higher = more cells survive
Etoposide = compound: COc1cc([C@@H]2c3cc4c(cc3[C@@H](O[C@@H]3O[C@@H]5CO[C@@H](C)O[C@H]5[C@H](O)[C@H]3O)[C@H]3COC(=O)[C@H]23)OCO4)cc(OC)c1O [Etoposide]
Method in brief: (§1)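 After an overnight hold at 37 °C, lung cancer cell lines in 1536-well plates were pinned with five library-drug doses (not always all listed), each √10 from the next, on vehicle-anchored plates. The cells stayed 5 days without fresh medium, then a one-step fix, permeabilisation and Hoechst stain preceded 4× imaging and MetaXpress nuclear counts. A plate passed only with control CV under 25% and at least one doubling. Viability is the median, over plates, of treated-well nuclei relative to vehicle-well nuclei.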

Bleomycin = compound: CC1=C(N=C(N=C1N)[C@H](CC(=O)N)NC[C@@H](C(=O)N)N)C(=O)N[C@@H]([C@H](C2=CN=CN2)OC3C(C(C(C(O3)CO)O)O)OC4C(C(C(C(O4)CO)O)OC(=O)N)O)C(=O)N[C@H](C)[C@H]([C@H](C)C(=O)N[C@@H]([C@@H](C)O)C(=O)NCCC5=NC(=CS5)C6=NC(=CS6)C(=O)NCCC[S+](C)C)O [Bleomycin]; settings: main component drawn
Method in brief: as §1

Etoposide + Pemetrexed = compound: COc1cc([C@@H]2c3cc4c(cc3[C@@H](O[C@@H]3O[C@@H]5CO[C@@H](C)O[C@H]5[C@H](O)[C@H]3O)[C@H]3COC(=O)[C@H]23)OCO4)cc(OC)c1O [Etoposide] + Nc1nc2[nH]cc(CCc3ccc(C(=O)N[C@@H](CCC(=O)O)C(=O)O)cc3)c2c(=O)[nH]1 [Pemetrexed] (partner 0.2 µM)
Method in brief: (§2)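 A single step with final 0.05% Triton X-100, 1% formaldehyde and 1 ug/ml Hoechst fixed the cells and stained nuclei 5 days after treatment. Lung cancer cell lines in 1536-well plates had been treated by pin tool the day after seeding with one drug alone or a fixed anchor-drug dose plus five library-drug doses (not always all listed) in √10 steps, and nuclei were counted on 4× images. Relative viability is the ratio of nuclei in treated wells to nuclei in vehicle wells, taken as the median of duplicate plates.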

Bleomycin + OSI-027 = compound: CC1=C(N=C(N=C1N)[C@H](CC(=O)N)NC[C@@H](C(=O)N)N)C(=O)N[C@@H]([C@H](C2=CN=CN2)OC3C(C(C(C(O3)CO)O)O)OC4C(C(C(C(O4)CO)O)OC(=O)N)O)C(=O)N[C@H](C)[C@H]([C@H](C)C(=O)N[C@@H]([C@@H](C)O)C(=O)NCCC5=NC(=CS5)C6=NC(=CS6)C(=O)NCCC[S+](C)C)O [Bleomycin] + COc1cccc2cc(-c3nc([C@H]4CC[C@H](C(=O)O)CC4)n4ncnc(N)c34)[nH]c12 [OSI-027] (partner 0.5 µM); settings: main component drawn
Method in brief: as §2

| Cell Line | relative viability (Etoposide; 0.01 µM) | relative viability (Etoposide; 0.03162 µM) | relative viability (Etoposide; 0.1 µM) | relative viability (Etoposide; 0.3162 µM) | relative viability (Etoposide; 1 µM) | relative viability (Bleomycin; 0.01 µM) | relative viability (Bleomycin; 0.03162 µM) | relative viability (Bleomycin; 0.1 µM) | relative viability (Bleomycin; 0.3162 µM) | relative viability (Bleomycin; 1 µM) | relative viability (Etoposide + Pemetrexed; first compound 0.01 µM) | relative viability (Etoposide + Pemetrexed; first compound 0.03162 µM) | relative viability (Etoposide + Pemetrexed; first compound 0.1 µM) | relative viability (Etoposide + Pemetrexed; first compound 0.3162 µM) | relative viability (Etoposide + Pemetrexed; first compound 1 µM) | relative viability (Bleomycin + OSI-027; first compound 0.01 µM) | relative viability (Bleomycin + OSI-027; first compound 0.03162 µM) | relative viability (Bleomycin + OSI-027; first compound 0.1 µM) | relative viability (Bleomycin + OSI-027; first compound 0.3162 µM) | relative viability (Bleomycin + OSI-027; first compound 1 µM) |
| --- | --- | --- | --- | --- | --- | --- | --- | --- | --- | --- | --- | --- | --- | --- | --- | --- | --- | --- | --- | --- |
| 201T | 0.906 | 0.988 | 0.845 | 0.881 | 0.526 | 0.909 | 0.95 | 0.922 | 0.756 | 0.634 | 0.325 | 0.343 | 0.355 | 0.318 | 0.32 | 0.649 | 0.77 | 0.634 | 0.407 | 0.207 |
| A549 | 0.875 | 0.947 | 0.476 | 0.281 | 0.131 | 0.843 | 0.789 | 0.608 | 0.132 | 0.0828 | – | – | – | – | – | – | – | – | – | – |
| A-427 | 0.968 | 1.12 | 0.699 | 0.612 | 0.237 | 0.795 | 0.811 | 0.748 | 0.326 | 0.2 | 0.999 | 1.06 | 0.778 | 0.607 | 0.305 | 0.332 | 0.439 | 0.34 | 0.187 | 0.144 |
| ABC-1 | 1.08 | 0.954 | 0.697 | 0.41 | 0.273 | 0.741 | 0.942 | 0.891 | 0.383 | 0.29 | – | – | – | – | – | 0.394 | 0.428 | 0.388 | 0.18 | 0.212 |
| BEN | 0.932 | 0.986 | – | 1 | 0.913 | 0.94 | 0.943 | 0.973 | 0.638 | 0.742 | 0.87 | 1.05 | – | 0.727 | 0.669 | 0.284 | 0.299 | 0.286 | 0.243 | 0.288 |
| CAL-12T | 0.946 | 1.04 | 0.797 | 0.726 | 0.333 | 0.755 | 0.824 | 0.545 | 0.273 | 0.202 | 1.02 | 1.29 | 1.07 | 0.963 | 0.484 | 0.551 | 0.465 | 0.389 | 0.21 | 0.174 |
| COR-L23 | 0.865 | 1.05 | 0.976 | 0.704 | 0.324 | 0.831 | 0.799 | 0.586 | 0.188 | 0.129 | 0.198 | 0.207 | 0.207 | 0.214 | 0.189 | 0.566 | 0.696 | 0.415 | 0.139 | 0.122 |
| COR-L 105 | 0.979 | 0.98 | 0.638 | 0.823 | 0.662 | 0.943 | 0.87 | 0.759 | 0.556 | 0.404 | 1.03 | 1.02 | 1.27 | 0.836 | 0.844 | 0.591 | 0.567 | 0.639 | 0.339 | 0.377 |
| Calu-6 | 0.938 | 0.985 | 1.05 | 0.684 | 0.365 | 0.77 | 0.784 | 0.495 | 0.205 | 0.174 | – | – | – | – | – | – | – | – | – | – |
| ChaGo-K-1 | 1.04 | 1.06 | 0.858 | 0.481 | 0.308 | 0.832 | 0.895 | 0.846 | 0.58 | 0.387 | 0.267 | 0.261 | 0.259 | 0.261 | 0.218 | 0.46 | 0.536 | 0.5 | 0.302 | 0.179 |
| EBC-1 | 0.977 | 1.06 | 0.714 | 0.872 | 0.562 | 0.893 | 0.951 | 0.905 | 0.836 | 0.602 | – | – | – | – | – | – | – | – | – | – |
| EKVX | 0.998 | 1.01 | 0.637 | 0.741 | 0.377 | 0.928 | 0.898 | 0.797 | 0.374 | 0.321 | 0.351 | 0.443 | 0.344 | 0.285 | 0.248 | 0.636 | 0.711 | 0.598 | 0.398 | 0.387 |
| EMC-BAC-2 | 0.964 | 0.959 | 0.453 | 0.278 | 0.234 | 0.72 | 0.91 | 0.747 | 0.418 | 0.302 | 0.442 | 0.466 | 0.476 | 0.37 | 0.284 | 0.298 | 0.326 | 0.304 | 0.257 | 0.159 |
| EPLC-272H | 1.05 | 1.09 | 0.658 | 0.815 | 0.513 | 0.811 | 0.882 | 0.434 | 0.132 | 0.151 | 0.344 | 0.327 | 0.318 | 0.315 | 0.308 | 0.258 | 0.257 | 0.21 | 0.147 | 0.149 |
| H3255 | 0.962 | 1.09 | 0.73 | 0.725 | 0.433 | 0.837 | 1.02 | 0.821 | 0.61 | 0.502 | 0.541 | 0.619 | 0.564 | 0.536 | 0.404 | 0.524 | 0.6 | 0.504 | 0.53 | 0.429 |
| HARA | 0.856 | 1.18 | 0.979 | 0.849 | 0.348 | 0.804 | 0.769 | 0.842 | 0.506 | 0.537 | 0.235 | 0.309 | 0.25 | 0.261 | 0.232 | 0.401 | 0.505 | 0.454 | 0.3 | 0.176 |
